# How the values were obtained:
# [1] = system: Bovine viral diarrhea virus 1; test: Antiviral activity against BVDV AV-69 infected in MDBK cells assessed as cytopathic effect after 3 to 4 days by plaque reduction assay; format: functional, organism-based; settings: Bovine viral diarrhea virus isolates and strains, AV-69, MDBK
# [2] = Cytotoxicity against MDBK cells at 20 uM after 48 hrs by MTT assay; format: cell-based, Bos taurus; settings: cattle
# [3] = Cytotoxicity against MDBK cells after 48 hrs by MTT assay; format: cell-based, Bos taurus; settings: cattle
# [4] = system: Bovine viral diarrhea virus 1; test: Ratio of ribavirin EC50 to compound EC50 for BVDV AV-69; format: functional
Structure (SMILES),EC50 [1],Activity [2],CC50 at 48 h [3],Ratio EC50 [4]
CC12COS(=O)(=O)CC1=C(c1ccc(C(F)(F)F)cc1)C(=O)O2 (stereo not drawn),> 1200 nM,Non-toxic,–,–
Cc1ccc(C2=C3CS(=O)(=O)OCC3(C)OC2=O)cc1 (stereo not drawn),> 1200 nM,Non-toxic,–,–
CC12COS(=O)(=O)CC1=C(c1ccc(Cl)cc1)C(=O)O2 (stereo not drawn),500 nM,Non-toxic,–,–
CC12COS(=O)(=O)CC1=C(c1ccccc1)C(=O)O2 (stereo not drawn),500 nM,–,> 20000 nM,–
CC12COS(=O)(=O)CC1=C(c1ccccc1Br)C(=O)O2 (stereo not drawn),120 nM,–,> 20000 nM,10
CC12COS(=O)(=O)CC1=C(c1ccc(Br)cc1)C(=O)O2 (stereo not drawn),1000 nM,Non-toxic,–,–
COc1ccc(C2=C3CS(=O)(=O)OCC3(C)OC2=O)cc1 (stereo not drawn),> 1200 nM,–,–,–
CC12COS(=O)(=O)CC1=C(c1ccc(F)c(F)c1)C(=O)O2 (stereo not drawn),> 1200 nM,Non-toxic,–,–
CC12COS(=O)(=O)CC1=C(c1ccccc1F)C(=O)O2 (stereo not drawn),500 nM,–,> 20000 nM,–
CC12COS(=O)(=O)CC1=C(c1cccc(F)c1)C(=O)O2 (stereo not drawn),1000 nM,–,> 20000 nM,–
CC12COS(=O)(=O)CC1=C(c1ccc(F)cc1)C(=O)O2 (stereo not drawn),> 1200 nM,–,–,–
NC(=O)c1ncn([C@@H]2O[C@H](CO)[C@@H](O)[C@H]2O)n1 [RIBAVIRIN],1300 nM,–,> 20000 nM,–
